One experiment deals with patient with migraine. Put plainly: Oral tablet given to a patient with migraine. Format: in vivo, human. The note with it: Example K oral tablet, 4 mg per tablet, one tablet swallowed. From the text: One tablet is swallowed by a patient with migraine.
For experiment [1], the system named is human subject suffering from septic or cardiogenic shock. Put plainly: Intravenous solution given to a human subject suffering from septic or cardiogenic shock. It is filed as in vivo. The note with it: Example T parenteral solution 10 mg/ml carrier, approximately 2.0 ml intravenously. Here is the method:
The above ingredients are mixed, forming a solution. Approximately 2.0 ml of the solution is administered, intravenously, to a human subject suffering from septic or cardiogenic shock. The symptoms subside.

The subject of experiment [2] is patient with nasal congestion. Put plainly: Composition given to a patient with nasal congestion. Format: in vivo, human. Here is the method: One tablet is swallowed by a patient with nasal congestion.
One tablet is chewed and swallowed by a patient with nasal congestion.
One tablet is placed under the tongue of a patient with nasal congestion and allowed to dissolve.
One-tenth of a mL of the composition is sprayed from a pump actuator into each nostril of a patient with nasal congestion.
One-fifth of a mL of the composition is applied as drops from a dropper into each nostril of a patient with riasal congestion.
One 15 mL dose of the alcohol-free liquid medication is swallowed by a patient with nasal congestion.

The next experiment concerns patient with asthma. Description: Inhalation aerosol given to a patient with asthma. The settings on record: Example F inhalation aerosol 5.0 % w/v, two puffs from a metered-dose inhaler. It is filed as in vivo, human. From the text: Two-puffs of the aerosol composition is inhaled from a metered-dose inhaler by a patient with asthma.
Experiment [3] relates to patient with nasal congestion and runny nose due to allergic rhinitis. Description: Oral liquid given to a patient with nasal congestion and runny nose due to allergic rhinitis. Format: in vivo, human. The settings on record: Example H oral liquid, 15 mg per 15 mL dose, with chlorpheniramine maleate 4 mg, one dose swallowed. Here is the method:
One 15 mL dose of the liquid composition is swallowed by a patient with nasal congestion and runny nose due to allergic rhinitis.

A further experiment relates to patient with glaucoma. Put plainly: Topical ophthalmic composition given to a patient with glaucoma, intraocular pressure. Format: in vivo, human. The note with it: Example G topical ophthalmic composition 0.10 % w/v, one-tenth of a mL into each eye. Here is the method: One-tenth of a mL of the composition is administered directly into each eye of a patient with glaucoma.

In the case of `Cc1c(NC(=N)N)ccc2nc[nH]c12` [Subject Compound 1, (4-Methylbenzimidazol-5-yl)guanidine], in the experiment with patient with migraine, the “pain and aura of migraine” value is reported as “substantially diminished”. In experiment [1], the “symptoms of septic or cardiogenic shock” value is “subside”. Besides, the nasal congestion result in experiment [2] (Example B chewable tablet, 15.0 mg per tablet, one tablet chewed and swallowed) is on record as “substantially reduced”; in experiment [2] (Example E intranasal gel 0.10 % w/v, one-fifth of a mL as drops into each nostril), “substantially reduced”.

As to `Cc1cc(NC(=N)N)c(C)c2[nH]cnc12` [Subject Compound 2, (4,7-Dimethylbenzimidazol-5-yl)guanidine], the asthmatic condition entry in the experiment on patient with asthma is reported as “effectively relieved”. In addition, in experiment [2] (Example J alcohol-free oral liquid, 30 mg per 15 mL dose, one dose swallowed), the nasal congestion entry is on record as “substantially diminished”.

Consider `Cc1nc2c(C)c(NC(=N)N)ccc2[nH]1` [Subject Compound 3, (2,4-Dimethylbenzimidazol-5-yl)quanidine], for which the nasal congestion result in experiment [2] (Example D intranasal solution 0.20 % w/v, one-tenth of a mL sprayed into each nostril) is recorded as “substantially diminished”.

`Cc1c(NC(=N)N)ccc2c1ncn2C` [Subject Compound 4, (1,4-Dimethylbenzimidazol-5-yl)quanidine]: in experiment [3], the “congestion and runny nose” value is reported as “effectively reduced”. Further, the nasal congestion result in experiment [2] (Example A oral tablet, 20.0 mg per tablet, one tablet swallowed) is recorded as “substantially diminished”.

Regarding `N=C(N)Nc1ccc2nc[nH]c2c1Br` [Subject Compound 5, (4-Bromobenzimidazol-5-yl)guanidine], in experiment [2] (Example C sublingual tablet, 2.00 mg per tablet, dissolved under the tongue), the nasal congestion result was “rapidly and substantially diminished”. Also, in the experiment on patient with glaucoma, the intraocular pressure entry was “substantially reduced”.

For the origin of these results see patent publication US6391878B2, “Guanidinyl heterocycle compounds useful as alpha-2 adrenoceptor agonists” (The Procter & Gamble Company, priority 1996, dated 2002).
